Values quoted from earlier work as cited in patent US10206391B2, “Strobilurin formulations” (priority 2011, dated 2019).
Values after ≈ are worked out from the molar mass of the structure shown. Like-named read-outs stand apart in the source and are kept apart here. Each block holds one molecule with its values, some of them ahead of it.

Experiments:
[1] = not given; remark: listed apart in the source
[2] = not given; remark: listed apart in the source
[3] = not given; remark: listed apart in the source

- DT50 for aqueous photolysis (water, pH 7): DT50 for aqueous photolysis 30 days, pH7
- Solubility in DMF ([2]; 20° C.): 200 to 250 g/L
- Solubility in acetone ([2]; 20° C.): 67 to 80 g/L
- Solubility in acetonitrile ([2]; 20° C.): 50 to 57 g/L
- Solubility in dichloromethane ([2]; 20° C.): > 250 g/L
- Solubility in ethyl acetate ([2]; 20° C.): 33 to 40 g/L
- Solubility in methanol ([2]; 20° C.): 20 to 25 g/L
- Solubility in toluene ([2]; 20° C.): 20 to 25 g/L
- Solubility in water ([2]; pH 5.7, 20° C.): 4.3 mg/L (≈ 0.0132 mM)
- Solubility in water ([2]; pH 8.0, 20° C.): 3.5 mg/L (≈ 0.0107 mM)
- KOW logP ([3]; pH 6.5): logP = 3.59
SMILES: CNC(=O)/C(=N/OC)c1ccccc1COc1cc(C)ccc1C [Dimoxystrobin, (E)-2-(methoxyimino)-N-methyl-2-[α-(2,5-xylyloxy)-o-tolyl]acetamide]
- Time stable in aqueous solution ([1]; pH 4-9, 50° C.): Stable >30 d in aqueous solution at pH 4-9, 50 °C
- Solubility in isopropanol ([2]; 20° C.): isopropanol, n-heptane, n-octanol and olive oil all <10 g/l
- Solubility in n-heptane ([2]; 20° C.): isopropanol, n-heptane, n-octanol and olive oil all <10 g/l
- Solubility in n-octanol (octanol) ([2]; 20° C.): isopropanol, n-heptane, n-octanol and olive oil all <10 g/l
- Solubility in olive oil ([2]; 20° C.): isopropanol, n-heptane, n-octanol and olive oil all <10 g/l
- Metabolic stability in plants and xylem systemicity (in words) (plants; plant tissues): metabolically sufficiently stable in plants and show a pronounced xylem systemicity

SMILES: CC1(c2ccc(Oc3ccccc3)cc2)OC(=O)N(Nc2ccccc2)C1=O (centres unmarked) [Famoxadone, 3-anilino-5-methyl-5-(4-phenoxyphenyl)-1,3-oxazolidine-2,4-dione]
- DT50 for aqueous photolysis (pH 5): 4.6 days
- DT50 for aqueous photolysis (water, pH 7): 1.9 days
- DT50 in water with light ([1]; pH 5, 25° C.): 4.6 d (pH 5, 25° C.).
- DT50 in water with no light ([1]; pH 5, 25° C.): 41 days
- DT50 in water with no light ([1]; pH 7, 25° C.): 2 days
- DT50 in water with no light ([1]; pH 9, 25° C.): 0.0646 d (pH 9) (25° C.); in water with light, DT50
- KOW logP ([3]; pH 7): logP = 4.65

SMILES: CO/N=C(/C1=NOCCO1)c1ccccc1Oc1ncnc(Oc2ccccc2Cl)c1F [Fluxastrobin, (E)-{2-[6-(2-chlorophenoxy)-5-fluoropyrimidin-4-yloxy]phenyl}(5,6-dihydro-1,4,2-dioxazin-3-yl)methanone O-methyloxime]
- Photolytic stability DT50 (sterile aqueous phosphate buffer, pH 7): DT50 3.8-4.1 days in sterile aqueous phosphate
- Photolytic stability DT50 (under solar summer conditions, Phoenix AZ, USA in June): buffer, pH 7; 19- 22 days under solar summer
- Hydrolysis DT50 ([1]; pH 4, 7 and 9, 50° C.): Hydrolysis DT50 >1 y (pH 4, 7 and 9, 50° C.);
- Solubility in dichloromethane ([2]; 20° C.): > 250 g/L
- Solubility in isopropanol ([2]; 20° C.): 6.7 g/L (≈ 14.6 mM)
- Solubility in n-heptane ([2]; 20° C.): 0.04 g/L (≈ 0.0872 mM)
- Solubility in xylene ([2]; 20° C.): 38.1 g/L (≈ 83 mM)
- Solubility in water ([2]; pH 7, 20° C.): 2.29 mg/L (≈ 0.00499 mM)
- Solubility in water ([2]; unbuffered, 20° C.): 2.56 mg/L (≈ 0.00558 mM)
- KOW logP ([3]; 20° C.): logP = 2.86
- Metabolic stability in plants and xylem systemicity (in words) (plants; plant tissues): metabolically sufficiently stable in plants and show a pronounced xylem systemicity

SMILES: CO/N=C(/C(=O)OC)c1ccccc1COc1ccccc1C [Kresoxim-methyl, methyl(E)-methoxyimino[2-(o-tolyloxymethyl)phenyl]acetate]
- DT50 for aqueous photolysis (water, pH 7): Photolysis DT50 18.2 days, pH7
- Stability (in words) ([1]; pH 5, text wrapped over r19-r20 reads 'relatively stable at pH 5'): stable at pH 5.
- Hydrolysis DT50 ([1]; pH 7): 816 h
- Hydrolysis DT50 ([1]; pH 9): 7 h

- DT50 for aqueous photolysis (water, pH 7): Photolysis DT50 0.8 days, pH7
- Solubility in water ([2]; 20° C.): water 80.6 mg/l (20° C.).
- KOW logP ([3]; 20° C.): logP = 2.36
SMILES: CNC(=O)/C(=N/OC)c1ccccc1CO/N=C(C)/C(=N/OC)C(/C)=N/OC [Orysastrobin, 2[(E)-methoxyimino]-2-[(3E,6E)-2-{5-[(E)-methoxyimino]-4,6-dimethyl-2,8-dioxa-3,7-diazanona-3,6-dienyl}phenyl]-N-methylacetamide]

SMILES: CO/C=C(/C(=O)OC)c1ccccc1COc1cccc(C(F)(F)F)n1 [Picoxystrobin, methyl(E)-3-methoxy-2-[2-(6-trifluoromethyl-2-pyridyloxymethyl)phenyl]acrylate]
- DT50 for aqueous photolysis (water, pH 7): DT50 for aqueous photolysis 21 days, pH7
- DT50 ([1]; pH 9, 50° C.): ~15 days
- Metabolic stability in plants and xylem systemicity (in words) (plants; in vivo): metabolically sufficiently stable in plants and show a pronounced xylem systemicity

SMILES: COC(=O)N(OC)c1ccccc1COc1ccn(-c2ccc(Cl)cc2)n1 [Pyraclostrobin, methyl N-{2-[1-(4-chlorophenyl)pyrazol-3-yloxymethyl]phenyl}(N-methoxy)carbamate]
- DT50 for aqueous photolysis (water, pH 7): Photolysis DT50 in water 1.7 days, pH7
- Time stable ([1]; pH 5-7, 25° C.): Stable >30 d (pH 5-7, 25° C.).
- Solubility in acetone ([2]; 20° C.): acetonitrile, dichloromethane and toluene >500 (all g/l
- Solubility in acetonitrile ([2]; 20° C.): acetonitrile, dichloromethane and toluene >500 (all g/l
- Solubility in dichloromethane ([2]; 20° C.): acetonitrile, dichloromethane and toluene >500 (all g/l
- Solubility in ethyl acetate ([2]; 20° C.): acetonitrile, dichloromethane and toluene >500 (all g/l
- Solubility in isopropanol ([2]; 20° C.): 30.0 g/L (≈ 77.4 mM)
- Solubility in methanol ([2]; 20° C.): methanol 100.8, acetone, ethyl acetate, g/l
- Solubility in n-heptane ([2]; 20° C.): 3.7 g/L (≈ 9.54 mM)
- Solubility in n-octanol (octanol) ([2]; 20° C.): 24.2 g/L (≈ 62.4 mM)
- Solubility in olive oil ([2]; 20° C.): 28.0 g/L (≈ 72.2 mM)
- Solubility in toluene ([2]; 20° C.): acetonitrile, dichloromethane and toluene >500 (all g/l

SMILES: CO/N=C(/C(=O)OC)c1ccccc1CO/N=C(\C)c1cccc(C(F)(F)F)c1 [Trifloxystrobin, methyl(E)-methoxyimino-{(E)-α-[1-(α,α,α-trifluoro-m-tolyl)ethylideneaminooxy]-o-tolyl}acetate]
- DT50 for aqueous photolysis (pH 5): 1.1 days
- DT50 for aqueous photolysis (water, pH 7): 2.7 days
- Stability to hydrolysis (in words) ([1]; pH 5): stable
- Hydrolysis DT50 ([1]; pH 7, 20° C.): 11.4 w
- Hydrolysis DT50 ([1]; pH 9, 20° C.): 27.1 h
